# Source: PMC10902181 (Journal of neurochemistry, 2023)
# Read-outs that look alike come from different tables or passages of the source.
# How the values were obtained:
# Test in all cases: TEVC current recordings from Xenopus oocytes, channel blocker inhibition
# Format in all cases: cell-based
# [1] = biological target: GluN2B-V618G-containing NMDARs (Homo sapiens, UniProt Q05586+Q13224, V618G); details: for % inhibition: 2B-V618G, 300 μM blocker, −40 mV; for IC50: IC50, 2B-V618G, holding −40 mV
# [2] = biological target: GluN1/GluN2B-N615I (Homo sapiens, UniProt Q05586+Q13224, N615I); details: for % inhibition: 2B-N615I, 300 μM blocker, −40 mV; for IC50: IC50, 2B-N615I, holding −40 mV
# [3] = biological target: WT GluN1/GluN2A (Homo sapiens, UniProt Q05586+Q12879); details: for IC50: IC50, WT GluN1/WT 2A, holding −40 mV; for % inhibition: WT GluN1/WT 2A, 300 μM blocker, −40 mV
# [4] = biological target: GluN1-G620R/GluN2A (Homo sapiens, UniProt Q05586+Q12879, G620R); details: for % inhibition: 1-G620R/2A, 300 μM blocker, −40 mV; for IC50: IC50, 1-G620R/2A, holding −40 mV
# [5] = biological target: GluN2B-W607C-containing NMDARs (Homo sapiens, UniProt Q05586+Q13224, W607C); details: for % inhibition: 2B-W607C, 300 μM blocker, −40 mV; for IC50: IC50, 2B-W607C, holding −40 mV
# [6] = biological target: GluN2B-N616K-containing NMDARs (Homo sapiens, UniProt Q05586+Q13224, N616K); details: for % inhibition: 2B-N616K, 300 μM blocker, −40 mV; for IC50: IC50, 2B-N616K, holding −40 mV
# [7] = biological target: GluN2A-N614S-containing NMDARs (Homo sapiens, UniProt Q05586+Q12879, N614S); details: for % inhibition: 2A-N614S, 300 μM blocker, −40 mV; for IC50: IC50, 2A-N614S, holding −40 mV
# [8] = biological target: GluN1/GluN2B-N615K (Homo sapiens, UniProt Q05586+Q13224, N615K); details: for % inhibition: 300 μM blocker, −40 mV
# [9] = biological target: GluN1/GluN2A-L611Q (Homo sapiens, UniProt Q05586+Q12879, L611Q); details: for % inhibition: 2A-L611Q, 300 μM blocker, −40 mV; for IC50: IC50, 2A-L611Q, holding −40 mV
# [10] = biological target: GluN2B-G611V-containing NMDARs (Homo sapiens, UniProt Q05586+Q13224, G611V); details: for % inhibition: 2B-G611V, 300 μM blocker, −40 mV; for IC50: IC50, 2B-G611V, holding −40 mV
# [11] = biological target: WT GluN1/GluN2B (Homo sapiens, UniProt Q05586+Q13224); details: for IC50: IC50, WT GluN1/WT 2B, holding −40 mV; for % inhibition: WT GluN1/WT 2B, 300 μM blocker, −40 mV
# [12] = biological target: GluN2A-N615K-containing NMDARs (Homo sapiens, UniProt Q05586+Q12879, N615K); details: for % inhibition: 2A-N615K, 300 μM blocker, −40 mV; for IC50: IC50, 2A-N615K, holding −40 mV
# [13] = biological target: GluN2B-V620M-containing NMDARs (Homo sapiens, UniProt Q05586+Q13224, V620M); details: for % inhibition: 2B-V620M, 300 μM blocker, −40 mV; for IC50: IC50, 2B-V620M, holding −40 mV
structure (smiles),measurement,setting,value
COc1ccc2c(c1)[C@]13CCCC[C@@H]1[C@H](C2)N(C)CC3 [dextromethorphan],% inhibition,[1]; w/ 1 mM Mg^2+,83 ± 4.0% (10)
same,% inhibition,[1]; w/o Mg^2+,85 ± 1.7% (11)^¥
same,reduced potency compared to the WT receptors,"[1]; GluN2B-V618G, presence of 1 mM Mg^2+",3.2 fold
same,IC50,[1]; w/ 1 mM Mg^2+,71 µM
same,IC50,[1]; w/o Mg^2+,45 µM
same,% inhibition,[2]; w/ 1 mM Mg^2+,94 ± 1.5% (11)
same,% inhibition,[2]; w/o Mg^2+,95 ± 1.4% (14)
same,IC50,[2]; w/ 1 mM Mg^2+,17 µM
same,IC50,[2]; w/o Mg^2+,15 µM
same,IC50,[3]; w/ 1 mM Mg^2+,25 µM
same,IC50,[3]; w/o Mg^2+,11 µM
same,% inhibition,[3]; w/ 1 mM Mg^2+,88 ± 3.3% (10)
same,% inhibition,[3]; w/o Mg^2+,95 ± 1.6% (19)
same,% inhibition,[4]; w/ 1 mM Mg^2+,96 ± 1.5% (8)^¥
same,% inhibition,[4]; w/o Mg^2+,97 ± 1.4% (14)
same,enhanced potency in comparison to WT NMDARs,"[4]; GluN1-G620R, absence of Mg^2+",2.5 fold
same,enhanced potency compared to the WT receptors,"[4]; GluN1-G620R, presence of 1 mM Mg^2+",5.7 fold
same,IC50,[4]; w/ 1 mM Mg^2+,4.4 µM
same,IC50,[4]; w/o Mg^2+,4.4 µM
same,% inhibition,[5]; w/ 1 mM Mg^2+,95 ± 1.4% (12)
same,% inhibition,[5]; w/o Mg^2+,90 ± 2.8% (11)
same,reduced potency in 1 mM Mg^2+ vs absence of Mg^2+,[5]; GluN2B-W607C,3 fold
same,IC50,[5]; w/ 1 mM Mg^2+,11 µM
same,IC50,[5]; w/o Mg^2+,3.7 µM
same,% inhibition,[6]; w/ 1 mM Mg^2+,93 ± 1.6% (7)
same,% inhibition,[6]; w/o Mg^2+,94 ± 1.7% (10)
same,enhanced potency compared to the WT receptors,"[6]; GluN2B-N616K, presence of 1 mM Mg^2+",4.9 fold
same,IC50,[6]; w/ 1 mM Mg^2+,4.5 µM
same,IC50,[6]; w/o Mg^2+,3.2 µM
same,% inhibition,[7]; w/ 1 mM Mg^2+,85 ± 2.7% (11)
same,% inhibition,[7]; w/o Mg^2+,85 ± 3.0% (10)^¥
same,IC50,[7]; w/ 1 mM Mg^2+,32 µM
same,IC50,[7]; w/o Mg^2+,22 µM
same,IC50,[8],> 300 µM
same,% inhibition,"[8]; 2B-N615K, w/ 1 mM Mg^2+",33 ± 3.7% (18) ^*^¥
same,% inhibition,"[8]; 2B-N615K, w/o Mg^2+",14 ± 2.7% (8)^¥
same,IC50,"[8]; 2B-N615K, w/ 1 mM Mg^2+, holding −40 mV",> 300 µM
same,% inhibition,[9]; w/ 1 mM Mg^2+,89 ± 2.3% (8)
same,% inhibition,[9]; w/o Mg^2+,91 ± 1.4% (16)
same,IC50,[9]; w/ 1 mM Mg^2+,36 µM
same,IC50,[9]; w/o Mg^2+,27 µM
same,% inhibition,[10]; w/ 1 mM Mg^2+,97 ± 1.0% (10)
same,% inhibition,[10]; w/o Mg^2+,94 ± 2.3% (10)
same,enhanced potency compared to the WT receptors,"[10]; GluN2B-G611V, presence of 1 mM Mg^2+",3.5 fold
same,IC50,[10]; w/ 1 mM Mg^2+,6.2 µM
same,IC50,[10]; w/o Mg^2+,3.6 µM
same,IC50,[11]; w/ 1 mM Mg^2+,22 µM
same,IC50,[11]; w/o Mg^2+,4.8 µM
same,% inhibition,[11]; w/ 1 mM Mg^2+,90 ± 1.9% (18)
same,% inhibition,[11]; w/o Mg^2+,95 ± 1.2% (15)
same,% inhibition,[12]; w/ 1 mM Mg^2+,97 ± 0.9% (12)^¥
same,% inhibition,[12]; w/o Mg^2+,98 ± 1.4% (8)
same,enhanced potency in comparison to WT NMDARs,"[12]; GluN2A-N615K, absence of Mg^2+",2.7 fold
same,enhanced potency compared to the WT receptors,"[12]; GluN2A-N615K, presence of 1 mM Mg^2+",8.3 fold
same,IC50,[12]; w/ 1 mM Mg^2+,3 µM
same,IC50,[12]; w/o Mg^2+,3.8 µM
same,% inhibition,[13]; w/ 1 mM Mg^2+,87 ± 3.2% (8)
same,% inhibition,[13]; w/o Mg^2+,93 ± 3.2% (8)
same,enhanced potency in comparison to WT NMDARs,"[13]; GluN2B-V620M, absence of Mg^2+",2.7 fold
same,enhanced potency compared to the WT receptors,"[13]; GluN2B-V620M, presence of 1 mM Mg^2+",6.3 fold
same,IC50,[13]; w/ 1 mM Mg^2+,3500 nM
same,IC50,[13]; w/o Mg^2+,1800 nM
